Results as given in patent US12304901B2, “Selective ligands for tau aggregates” (Sentonix, Inc., priority 2022, dated 2025).
Like-named read-outs stand apart in the source and are kept apart here. One block for each molecule: values may come before it.

Columns and labels:
[1] = target: recombinant 0N4R Tau fibrils (Homo sapiens (Human), UniProt P10636); assay: 3H-THK5117 competition binding to tau fibrils in vitro; conditions: competition with 3 nM [3H]-THK5117, 0N4R tau fibrils, 1 h, 22° C.; average if run more than once
Experimental: ^3H-THK5117 Competition Binding to Tau Fibrils In Vitro
Preparation of recombinant 0N4R Tau fibrils was performed as previously described in Morozova, O. A., Biochemistry (2013), Vol., 52(40), pages 6960-6967. Competition binding experiments to 0N4R Tau fibrils were performed by incubating increasing concentrations [10^−10-10^−6 M] of the Example compounds of the invention, or the known tau specific ligand PBB3 (PBB3 was synthesized as previously described in M. Maruyama, et al, Neuron 2013, 79, 1094-1108) or MK6240 (Novandi Chemistry AB), in the presence of 3 nM of the known tau ligand [^3H]-THK5117 (Novandi Chemistry) and 0.2 mM 0N4R tau fibrils in binding buffer (50 mM Tris-HCl, pH 7.4, 0.1% BSA) for 1 h in the dark, and at 22° C. The incubation was terminated by filtration through a Whatman GF/B glass filter (Whatman International, Kent, UK) using a Brandel cell harvester. The filter was then washed rapidly four times with 3 mL of ice-cold wash buffer (5 mM Tris-HCl, 0.25 mM NaCl, 5% EtOH), and equilibrated for 1 h in scintillation vials containing 5 mL of Ultima Gold scintillation fluid before being analysed using a Liquid Scintillation Analyzer.
The results are shown in Table 2 in the column labeled “Tau IC50”. […] Biological Assay Results

[2] = Mouse intravenous (IV) pharmacokinetic study of plasma and brain exposure with bioanalysis; format: in vivo; conditions: for Kp / half-life: male, NMRI, iv, 1 mg/kg; for Kp: brain/plasma
Experimental: A pharmacokinetic study of plasma and brain exposure in mice after IV administration of Example Compound 1 or Comparative Example Compound 1 was carried out following the protocol described in Loryan, I., et al, Pharm Res (2014) 31: 2203-2219. Comparative Example Compound 1 is 2-{2-Fluoro-6-[4-(hydroxymethyl)piperidin-1-yl]pyridin-3-yl}-1H-indol-5-ol, and has the following structure:
The experimental protocol and bioanalysis described in Loryan, I., et al, Pharm Res (2014) 31: 2203-2219 was followed to measure mouse plasma and brain exposure. Table 3 below provides specific details of the mice, sampling, dose, formulation, method and additional information regarding the experiment, and Table 4 below provides further information regarding the sampling in the experiment.

[3] = cited from earlier work
[4] = mouse, mouse, IV 1 mg/kg, read-out: Total concentration brain:plasma ratio
[5] = mouse, mouse, IV 1 mg/kg, read-out: Unbound concentration brain:plasma ratio
[6] = mouse, mouse, IV 1 mg/kg, read-out: unbound AUC in brain as % of the plasma AUC
[7] = brain, mouse NMRI male, IV 1 mg/kg, mean n=3
[8] = plasma, mouse NMRI male, IV 1 mg/kg, mean n=3

Chain of recombinant 0N4R Tau fibrils (P10636 other isoform, or with tags, fused parts or gaps): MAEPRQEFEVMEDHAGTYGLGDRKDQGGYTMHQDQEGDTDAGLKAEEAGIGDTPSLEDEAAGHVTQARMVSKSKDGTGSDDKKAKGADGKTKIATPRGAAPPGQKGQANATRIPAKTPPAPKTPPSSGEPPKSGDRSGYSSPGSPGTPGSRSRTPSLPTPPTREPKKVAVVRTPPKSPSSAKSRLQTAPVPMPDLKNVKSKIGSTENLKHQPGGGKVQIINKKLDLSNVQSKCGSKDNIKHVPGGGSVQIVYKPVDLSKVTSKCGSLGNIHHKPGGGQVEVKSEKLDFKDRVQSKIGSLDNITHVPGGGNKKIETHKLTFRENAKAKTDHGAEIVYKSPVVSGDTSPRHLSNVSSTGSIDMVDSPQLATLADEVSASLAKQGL

- IC50 [1]: 31.8 nM
Structure (SMILES): CO[C@@H]1CCCN(c2ccc(-c3cc4cc(O)ccc4[nH]3)c(F)n2)C1 [Example Compound 2, 2-{2-Fluoro-6-[(3R)-3-methoxypiperidin-1-yl]pyridin-3-yl}-1H-indol-5-ol]

- Total concentration AUC ([2]; brain, mouse, IV 1 mg/kg): 15 ng·h/g
- Unbound concentration AUC ([2]; brain, mouse, IV 1 mg/kg): 0.030 ng·h/g
- Kp [2, 4]: 0.1
- Kp [2, 5]: 0.002
- Kp [2, 6]: ~0.002
- Total concentration AUC ([2]; plasma, mouse, IV 1 mg/kg): 151 ng·h/g
- Unbound concentration AUC ([2]; plasma, mouse, IV 1 mg/kg): 14 ng·h/g
Structure (SMILES): OCC1CCN(c2ccc(-c3cc4cc(O)ccc4[nH]3)c(F)n2)CC1 [Comparative Example Compound 1, 2-{2-Fluoro-6-[4-(hydroxymethyl)piperidin-1-yl]pyridin-3-yl}-1H-indol-5-ol, reference compound]

Structure (SMILES): [11CH3]Nc1ccc(/C=C/C=C/c2nc3ccc(O)cc3s2)cn1 [^11C-PBB3]
- radiochemical purity after exposure to fluorescent light ([3]; 1 min after exposure): 77%
- radiochemical purity after exposure to fluorescent light ([3]; from 10 to 60 min after exposure): approximately 50%

- AUCinf [2, 7]: 457.8 ng·h/g
- AUClast [2, 7]: 454.6 ng·h/g
- Cmax [2, 7]: 1190 ng/g
- Tmax [2, 7]: 1.8 min
- Total concentration AUC ([2]; brain, mouse, IV 1 mg/kg): 457.8 ng·h/g
- Unbound concentration AUC ([2]; brain, mouse, IV 1 mg/kg): 0.09 ng·h/g
- half-life ([2]; mouse, brain, brain, following IV dosing, mouse, read-out: elimination half-life (converted)): ~18 min
- half-life ([2]; mouse, brain, brain, mouse NMRI male, IV 1 mg/kg, mean n=3, read-out: t1/2 (converted)): 18 min
- Kp [2, 4]: 1.7
- Kp [2, 5]: 0.56
- Kp [2, 6]: ~0.56
- half-life ([2]; mouse, plasma, plasma, mouse NMRI male, IV 1 mg/kg, mean n=3, read-out: t1/2 (converted)): 24 min
- AUC(0-inf) [2, 8]: 267 ng·h/mL
- AUC(0-t) [2, 8]: 264 ng·h/mL
- C0 [2, 8]: 884 ng/mL
- Cmax [2, 8]: 782 ng/mL
- MRT [2, 8]: 18 min
- Tmax [2, 8]: 1.8 min
- Vd [2, 8]: 1.2 L/kg
- clearance [2, 8]: 62.4 mL/min/kg
- Total concentration AUC ([2]; plasma, mouse, IV 1 mg/kg): 267.1 ng·h/g
- Unbound concentration AUC ([2]; plasma, mouse, IV 1 mg/kg): 0.16 ng·h/g
- IC50 [1]: 1.7 nM
Structure (SMILES): CO[C@H]1CCCN(c2ccc(-c3cc4cc(O)ccc4[nH]3)c(F)n2)C1 [Example Compound 1, 2-{2-Fluoro-6-[(3S)-3-methoxypiperidin-1-yl]pyridin-3-yl}-1H-indol-5-ol]
- adverse events in the mice during the study ([2]; mouse, IV 1 mg/kg): No adverse events were observed
